Data taken from patent publication US11045435B2, “Methods for treating ocular diseases” (NATUREWISE BIOTECH & MEDICALS CORPORATION, priority 2016, dated 2021).

Key:
GFAP = GFAP levels in retina, Western Blot, streptozotocin-induced diabetic retinopathy; format: in vivo, Sprague-Dawley female rats
Procedure: After a 16-hour fasting, Sprague-Dawley female rats weighing 200-220 g received a single 60 mg/kg intraperitoneal injection of Streptozotocin (STZ; Sigma-Aldrich, St. Louis, Md.) in 10 mM sodium citrate buffer (pH 4.5; Sigma-Aldrich, St. Louis, Md.). Control rats were fasted and received the buffer solution alone. Rats with blood glucose levels higher than 375 mg/dL 7 days after receiving STZ were considered to be diabetic. Diabetic rats were treated with 1% COMPOUND I, 0.5% COMPOUND I or vehicle eye drops 3 time a day for 6 weeks.
After rats were sacrificed as described in last section, eyes were enucleated and bisected. Retinas were peeled from eyecups and immediately homogenized with 0.3 ml ice-cold lysis buffer ([…]; Sigma-Aldrich, St. Louis, Mo.), including 1 μl proteinase inhibitor cocktail ([…]; Sigma-Aldrich, St. Louis, Mo.). The insoluble material was removed by centrifugation at 12,000 g for 20 minutes. Final protein concentrations were determined using a protein assay kit (BCA, Santa Cruz Biotechnology, Santa Cruz, Calif.) according to manufacturer's specifications. The homogenate (80 μg) were separated by NuPAGE Bis-Tris Mini Gels (Invitrogen Life Technologies, Grand Island, N.Y.) and transferred to nitrocellulose membranes by iBlot Gel transfer Device (Invitrogen Life Technologies, Grand Island, N.Y.). The nitrocellulose membranes were treated by BenchPro 4100 Card Processing Station (Invitrogen Life Technologies, Grand Island, N.Y.) according to the instruction of WesternBreeze® Chromogenic Kit-Anti-Rabbit (Invitrogen Life Technologies, Grand Island, N.Y.). The primary antibodies used were anti-GFAP (1:200, Santa Cruz Biotechnology, Santa Cruz, Calif.) and glycealdehyde-3-phosphate dehydrogenase (GAPDH) (1:100), respectively. The Anti-rabbit IgG, AP-linked antibody was used as a second antibody. For quantitative evaluation of the western blot studies, the nitrocellulose membranes were scanned and the optical densities were quantified with analysis software (Pro-gel Analyzer software, Media Cybernetics, Rockville, Md.).

ARPE-19 cells [1] = test: t-BHP-induced injury in ARPE-19 cells (MTT); format: cell-based, human; settings: 0.03 μg/ml to 10 µg/ml, 12 h
Procedure: (§1) MTT assay was used to measure the viability of ARPE-19 cells and HUVECs. 2×10^5 ARPE-19 cells or 5×10^4 HUVECs were seeded in 96-well plates ([…]) and allowed to grow overnight. Negative control was prepared by adding 100 μl medium without cells. The cells were then treated with fresh medium with COMPOUND I (0.03, 0.1, 0.3, 1, 3 and 10 μg/ml) and/or oxidants (NaIO3, H2O2, t-BHP and NaN3) for 12, 24, or 72 hours (200 μl/well). The vehicle control group was treated with vehicle. 20 μl MTT (5 mg/ml) was added to wells, and incubated for another 4 h. After incubation, the medium was discarded and 100 μl DMSO was added to solubilize formazan produced from MTT by the viable cells. Absorbance was measured at 570 nm using a microplate reader (Bio-Rad Laboratories, Inc., CA). Cells viability was calculated according to the following formula: Viability of cells (%)=(absorbance in tested sample−absorbance in negative control)/(absorbance in vehicle control−absorbance in negative control)×100%.

[2] = Hypoxia-induced injury in HUVECs (MTT); format: cell-based; settings: human, 1% O2, read-out: decrease of viability in hypoxic condition
Procedure: as §1
(§2) Cells were allowed to attach overnight, and then exposed to COMPOUND I or vehicle under hypoxic condition for 72 h. Hypoxic conditions (1% O2, 5% CO2 and 94% N2) were maintained by using a temperature and humidity controlled environmental C-chamber by O2 and CO2 controllers (Proox Model 110 and Pro CO2 model 120, Biospherix Ltd., Redfield, N.Y., USA) with N2 and CO2 gas sources.

ARPE-19 cells [3] = test: Hypoxia-induced injury in ARPE-19 cells (MTT); format: cell-based, human; settings: 72 h
Procedure: as §1, §2

HUVECs = test: t-BHP-induced injury in HUVECs (MTT); format: cell-based, human; settings: 12 h; for reversal of t-BHP-induced injury: 200 I-M t-BHP; for enhancement of t-BHP-induced injury: 10 μg/ml
Procedure: as §1

SMILES: COc1ccc(COc2c(/C=C/C(=O)NO)ccc(OC)c2CC=C(C)C)cc1 [COMPOUND I]
- GFAP level (Western Blot), DR animals as 100% (GFAP; 0.5% eye drops tid 6 weeks): 70%
- expression of GFAP proteins in retina vs diabetic control, in words (GFAP; 1% and 0.5% tid. for 6 weeks): significantly suppressed
- GFAP level (Western Blot), DR rats as 100% (GFAP; 1.0% eye drops tid 6 weeks): 46%
- effect on 200 μM t-BHP-induced injury (ARPE-19 cells [1]): reversed
- cytotoxicity at 72 h, 10 μg/ml [2]: 98%
- effect on cells in hypoxic condition (ARPE-19 cells [3]; 0.03 μg/ml to 10 μg/ml except 3 μg/ml): had no effect
- increase of viability in hypoxic condition (ARPE-19 cells [3]; 3 μg/ml, 1% O2): 22%
- reversal of t-BHP-induced injury (HUVECs; 1 μg/ml): 26%
- reversal of t-BHP-induced injury (HUVECs; 3 μg/ml): 28%
- enhancement of t-BHP-induced injury (HUVECs; 50 μM t-BHP): 40%
- enhancement of t-BHP-induced injury (HUVECs; 100 μM t-BHP): 20%
- enhancement of t-BHP-induced injury (HUVECs; 200 μM t-BHP): 51%
